Here are results for 25 molecules from patent US11117900B2 (Vertex Pharmaceuticals Incorporated, priority 2012, dated 2021).

The experiment has as its system HCT116 colorectal cancer cells. As to the kind of experiment: Cisplatin sensitization assay (96 h MTS cell viability).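 Note: compound concentration needed to lower the IC50 of Cisplatin alone by a set fold.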 It is filed as cell-based. The settings on record: Cisplatin sensitization value. The gist of the method: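 The MTS viability read, after 1 h with reagent, followed 96 h of co-treatment at 37° C. in 5% CO2. Both compound and cisplatin were titrated 2-fold from a 10 μM top final concentration in a complete concentration matrix on HCT116 cells. Scores +++/++/+ reflect cisplatin sensitization value ranges.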

For the molecule `CN1CCC(Oc2ccncc2NC(=O)c2c(N)nn3cc(Cl)cnc23)CC1` [I-O-64, 2-amino-6-chloro-N-(4-((1-methylpiperidin-4-yl)oxy)pyridin-3-yl)pyrazolo[1,5-a]pyrimidine-3-carboxamide], the “Cisplatin Sensitization Assay” value is “+++ (Compounds with a Cisplatin sensitization value of <0.02 μM are marked with “+++.”)”.
Then `C[C@H]1CN(C2COC2)CCN1c1ccncc1NC(=O)c1c(N)nn2cc(F)cnc12` [I-N-24, (S)-2-amino-6-fluoro-N-(4-(2-methyl-4-(oxetan-3-yl)piperazin-1-yl)pyridin-3-yl)pyrazolo[1,5-a]pyrimidine-3-carboxamide], with “+++ (Compounds with a Cisplatin sensitization value of <0.02 μM are marked with “+++.”)”; and `Nc1nn2cc(Cl)cnc2c1C(=O)Nc1cnccc1N1CCC(N2CCOCC2)CC1` [I-N-104, 2-amino-6-chloro-N-(4-(4-morpholinopiperidin-1-yl)pyridin-3-yl)pyrazolo[1,5-a]pyrimidine-3-carboxamide], with “+++ (Compounds with a Cisplatin sensitization value of <0.02 μM are marked with “+++.”)”.
Then `CN1C(=O)CCC12CCN(c1ccncc1NC(=O)c1c(N)nn3cc(F)cnc13)CC2` [I-N-235, 2-amino-6-fluoro-N-(4-(1-methyl-2-oxo-1,8-diazaspiro[4.5]decan-8-yl)pyridin-3-yl)pyrazolo[1,5-a]pyrimidine-3-carboxamide], with “++ (Compounds with a Cisplatin sensitization value >0.02 μM but <0.2 μM are marked with “++.”)”.
Regarding `CN1CCN(c2ccncc2NC(=O)c2c(N)nn3cc(F)cnc23)CC1` [I-N-3, 2-amino-6-fluoro-N-(4-(4-methylpiperazin-1-yl)pyridin-3-yl)pyrazolo[1,5-a]pyrimidine-3-carboxamide], the “Cisplatin Sensitization Assay” value is “+++ (Compounds with a Cisplatin sensitization value of <0.02 μM are marked with “+++.”)”.
Regarding `N#CCc1cnc2c(C(=O)Nc3cnccc3OC3CCCOC3)c(N)nn2c1` (stereo not shown) [I-O-41, 2-amino-6-(cyanomethyl)-N-(4-((tetrahydro-2H-pyran-3-yl)oxy)pyridin-3-yl)pyrazolo[1,5-a]pyrimidine-3-carboxamide], the “Cisplatin Sensitization Assay” value is recorded as “+++ (Compounds with a Cisplatin sensitization value of <0.02 μM are marked with “+++.”)”.
`CCN1CCCC1C(=O)N1CCN(c2c(F)cncc2NC(=O)c2c(N)nn3cc(F)cnc23)CC1` (stereo not shown) [I-N-185, 2-amino-N-(4-(4-(1-ethylpyrrolidine-2-carbonyl)piperazin-1-yl)-5-fluoropyridin-3-yl)-6-fluoropyrazolo[1,5-a]pyrimidine-3-carboxamide]: the “Cisplatin Sensitization Assay” value is “++ (Compounds with a Cisplatin sensitization value >0.02 μM but <0.2 μM are marked with “++.”)”.
As to `CN1CCN2CCN(c3c(F)cncc3NC(=O)c3c(N)nn4cc(F)cnc34)CC2C1=O` (stereo not shown) [I-N-240, 2-amino-6-fluoro-N-(5-fluoro-4-(8-methyl-9-oxohexahydro-1H-pyrazino[1,2-a]pyrazin-2(6H)-yl)pyridin-3-yl)pyrazolo[1,5-a]pyrimidine-3-carboxamide], the “Cisplatin Sensitization Assay” value was “++ (Compounds with a Cisplatin sensitization value >0.02 μM but <0.2 μM are marked with “++.”)”.
Then `Nc1nn2cc(F)cnc2c1C(=O)Nc1cnccc1N1CC(=O)N2CCCC2C1` (stereo not shown) [I-N-222, 2-amino-6-fluoro-N-(4-(4-oxohexahydropyrrolo[1,2-a]pyrazin-2(1H)-yl)pyridin-3-yl)pyrazolo[1,5-a]pyrimidine-3-carboxamide], with “++ (Compounds with a Cisplatin sensitization value >0.02 μM but <0.2 μM are marked with “++.”)”.
Then `CN1CC(N2CCN(C(=O)C3CCN(c4c(F)cncc4NC(=O)c4c(N)nn5cc(F)cnc45)CC3)CC2)C1` [I-G-96, 2-amino-6-fluoro-N-(5-fluoro-4-(4-(4-(1-methylazetidin-3-yl)piperazine-1-carbonyl)piperidin-1-yl)pyridin-3-yl)pyrazolo[1,5-a]pyrimidine-3-carboxamide], with “+++ (Compounds with a Cisplatin sensitization value of <0.02 μM are marked with “+++.”)”; and `Cc1cncc(NC(=O)c2c(N)nn3cc(F)cnc23)c1N1CCN(C2COC2)CC1` [I-N-16, 2-amino-6-fluoro-N-(5-methyl-4-(4-(oxetan-3-yl)piperazin-1-yl)pyridin-3-yl)pyrazolo[1,5-a]pyrimidine-3-carboxamide], with “+++ (Compounds with a Cisplatin sensitization value of <0.02 μM are marked with “+++.”)”; and `CN1CCN(c2ccncc2NC(=O)c2c(N)nn3cc(CC#N)cnc23)CC1` [I-N-82, 2-amino-6-(cyanomethyl)-N-(4-(4-methylpiperazin-1-yl)pyridin-3-yl)pyrazolo[1,5-a]pyrimidine-3-carboxamide], with “++ (Compounds with a Cisplatin sensitization value >0.02 μM but <0.2 μM are marked with “++.”)”.
For `CN1CCN(C(=O)c2ccc(-c3ccncc3NC(=O)c3c(N)nn4cc(F)cnc34)cn2)CC1` [I-C-19, 2-amino-6-fluoro-N-(6-(4-methylpiperazine-1-carbonyl)-[3,4′-bipyridin]-3′-yl)pyrazolo[1,5-a]pyrimidine-3-carboxamide], the “Cisplatin Sensitization Assay” value is “++ (Compounds with a Cisplatin sensitization value >0.02 μM but <0.2 μM are marked with “++.”)”.
The result for `CN1CCC[C@H]1C(=O)N1CCN(c2ccncc2NC(=O)c2c(N)nn3cc(F)cnc23)CC1` [I-N-198, (S)-2-amino-6-fluoro-N-(4-(4-(1-methylpyrrolidine-2-carbonyl)piperazin-1-yl)pyridin-3-yl)pyrazolo[1,5-a]pyrimidine-3-carboxamide] reads “++ (Compounds with a Cisplatin sensitization value >0.02 μM but <0.2 μM are marked with “++.”)”.
Then `COc1cncc(NC(=O)c2c(N)nn3cc(F)cnc23)c1-c1cccnc1` [I-C-82, 2-amino-6-fluoro-N-(5′-methoxy-[3,4′-bipyridin]-3′-yl)pyrazolo[1,5-a]pyrimidine-3-carboxamide], with “+++ (Compounds with a Cisplatin sensitization value of <0.02 μM are marked with “+++.”)”; and `CN1CC[C@H](Oc2ccncc2NC(=O)c2c(N)nn3cc(Cl)cnc23)C1` [I-O-69, (S)-2-amino-6-chloro-N-(4-((1-methylpyrrolidin-3-yl)oxy)pyridin-3-yl)pyrazolo[1,5-a]pyrimidine-3-carboxamide], with “++ (Compounds with a Cisplatin sensitization value >0.02 μM but <0.2 μM are marked with “++.”)”.
The result for `CN(C)C(=O)C1CCCN(c2ccncc2NC(=O)c2c(N)nn3cc(F)cnc23)C1` (stereo not shown) [I-N-290, 2-amino-N-(4-(3-(dimethylcarbamoyl)piperidin-1-yl)pyridin-3-yl)-6-fluoropyrazolo[1,5-a]pyrimidine-3-carboxamide] reads “++ (Compounds with a Cisplatin sensitization value >0.02 μM but <0.2 μM are marked with “++.”)”.
For `Nc1nn2cc(F)cnc2c1C(=O)Nc1cnccc1-c1ccc(C(=O)N2CCN(C3COC3)CC2)cc1` [I-C-49, 2-amino-6-fluoro-N-(4-(4-(4-(oxetan-3-yl)piperazine-1-carbonyl)phenyl)pyridin-3-yl)pyrazolo[1,5-a]pyrimidine-3-carboxamide], the “Cisplatin Sensitization Assay” value is on record as “+++ (Compounds with a Cisplatin sensitization value of <0.02 μM are marked with “+++.”)”.
As to `Cn1ncnc1-c1ccncc1NC(=O)c1c(N)nn2cc(F)cnc12` [I-C-65, 2-amino-6-fluoro-N-(4-(1-methyl-1H-1,2,4-triazol-5-yl)pyridin-3-yl)pyrazolo[1,5-a]pyrimidine-3-carboxamide], the “Cisplatin Sensitization Assay” value is “++ (Compounds with a Cisplatin sensitization value >0.02 μM but <0.2 μM are marked with “++.”)”.
Then `Nc1nn2cc(F)cnc2c1C(=O)Nc1cncc(F)c1N1CCC(C(=O)NC2COC2)CC1` [I-G-37, 2-amino-6-fluoro-N-(5-fluoro-4-(4-(oxetan-3-ylcarbamoyl)piperidin-1-yl)pyridin-3-yl)pyrazolo[1,5-a]pyrimidine-3-carboxamide], with “++ (Compounds with a Cisplatin sensitization value >0.02 μM but <0.2 μM are marked with “++.”)”; and `CN1CCC(Oc2c(Cl)cncc2NC(=O)c2c(N)nn3cc(Cl)cnc23)CC1` [I-O-46, 2-amino-6-chloro-N-(5-chloro-4-((1-methylpiperidin-4-yl)oxy)pyridin-3-yl)pyrazolo[1,5-a]pyrimidine-3-carboxamide], with “+ (Compounds with a Cisplatin sensitization value >0.2 μM but <5 μM are marked with “+.”)”.
For `Nc1nn2cc(F)cnc2c1C(=O)Nc1cncc(F)c1N1CCN(C(=O)C23CCN(CC2)CC3)CC1` [I-N-134, 2-amino-6-fluoro-N-(5-fluoro-4-(4-(quinuclidine-4-carbonyl)piperazin-1-yl)pyridin-3-yl)pyrazolo[1,5-a]pyrimidine-3-carboxamide], the “Cisplatin Sensitization Assay” value was “+ (Compounds with a Cisplatin sensitization value >0.2 μM but <5 μM are marked with “+.”)”.
For the molecule `Nc1nn2cc(Cl)cnc2c1C(=O)Nc1cnccc1OC1CCCNC1` (stereo not shown) [I-O-75, 2-amino-6-chloro-N-(4-(piperidin-3-yloxy)pyridin-3-yl)pyrazolo[1,5-a]pyrimidine-3-carboxamide], the “Cisplatin Sensitization Assay” value is listed as “++ (Compounds with a Cisplatin sensitization value >0.02 μM but <0.2 μM are marked with “++.”)”.
On to `Nc1nn2cc(F)cnc2c1C(=O)Nc1cncc(F)c1N1CCN(CC(=O)N2CCC2)CC1` [I-N-228, 2-amino-N-(4-(4-(2-(azetidin-1-yl)-2-oxoethyl)piperazin-1-yl)-5-fluoropyridin-3-yl)-6-fluoropyrazolo[1,5-a]pyrimidine-3-carboxamide], for which the “Cisplatin Sensitization Assay” value is “+++ (Compounds with a Cisplatin sensitization value of <0.02 μM are marked with “+++.”)”.
Regarding `Nc1nn2cc(Cl)cnc2c1C(=O)Nc1cnccc1N1CCC(N2CCn3ccnc3C2)CC1` [I-N-102, 2-amino-6-chloro-N-(4-(4-(5,6-dihydroimidazo[1,2-a]pyrazin-7(8H)-yl)piperidin-1-yl)pyridin-3-yl)pyrazolo[1,5-a]pyrimidine-3-carboxamide], the “Cisplatin Sensitization Assay” value was “++ (Compounds with a Cisplatin sensitization value >0.02 μM but <0.2 μM are marked with “++.”)”.
